Reference: patent US20210244686A1, “Novel Systems And Methods For The Therapeutic Use of Cannabinoids or Cannabinoid Analogs to Increase The Lipid Order of Cholesterol Containing Cell Membranes” (The Regents of the University of Colorado a body corporate, priority 2018, published 2021)

How the values were obtained:
[1] = tested on: endoplasmic reticulum in SKNBE2 and HaCaT keratinocyte cells; test: Confocal microscopy of rhodamine-glibenclamide staining, ER structure; format: cell-based, human
Procedure: FIG. 16. Rhodamine-glibenclamide staining in live cells is visualized by confocal microscopy in live cells. ER structure is perturbed after 2 hours of exposure to CBD and o-1602, but not for o-1821 exposure.

[2] = FRAP of NBD-cholesterol in synthetic membrane monolayers; settings: PC SUV derived monolayers, 20% cholesterol, 2% NBD-cholesterol
Description: CBD's ability to affect cholesterol orientation in both synthetic and cell derived ER membranes implies that CBD may contribute to increased lipid order. The ability of cholesterol oxidase assays to reveal alterations in lipid order has been previously reported in studies noting that cholesterol oxidase can preferentially target caveolar domains, which are ordered lipid domains. Another hallmark of lipid order is a decrease in lateral diffusion of lipids. As a result, the present inventors aimed to measure CBD's ability to perturb the lateral diffusion of fluorescently labelled cholesterol (NBD-cholesterol) in synthetic membranes. The present inventors deposited PC SUVs containing 20% moles of cholesterol and 2% moles NBD-cholesterol on glass-bottom multi-well imaging plates, followed by ultra-sonification to construct fluorescently labelled membrane monolayers. Using these monolayers and confocal microscopy, the inventor's performed fluorescence recovery after photobleaching (FRAP) experiments to measure the kinetics of recovery of fluorescent cholesterol. […] This effect of CBD on lateral diffusion could be rescued with simultaneous treatment with the lipid disordering agent DHA (FIGS. 6G, I). There are two proposed models for how DHA affects cholesterol in membranes. […]

[3] = tested on: SKNBE2 neuroblastoma cells; test: Flow cytometric analysis of rhodamine-glibenclamide staining in live cells; format: cell-based, human
[4] = tested on: SKNBE2 neuroblastoma cells; test: Toxicity profiling, percent death with and without cholesterol challenge; format: cell-based, human; settings: 24 hrs of exposure; high doses
Description: FIG. 15. Toxicity profiling.

SMILES: C=C(C)[C@@H]1CCC(C)=C[C@H]1c1c(O)cc(CCCCC)cc1O [CBD, cannabidiol]
- alteration of the structure of the endoplasmic reticulum ([1]; SKNBE2 and HaCaT keratinocyte cells): dramatically alters the structure of the endoplasmic reticulum
- ER structure ([1]; after 2 hours of exposure, live cells): perturbed
- FRAP kinetics (lateral diffusion of fluorescent cholesterol) [2]: significantly reduced
- cellular response similar to cholesterol drugs Atorvastatin and Ezetimibe ([3]; SKNBE2 neuroblastoma cells): low cholesterol response
- rhodamine-glibenclamide fluorescence ([3]; live cells, flow cytometry): Enhanced fluorescence
- toxicity in cells challenged with a high cholesterol environment [4]: toxic
